Earlier results on one compound are cited in US7138430B2, “Nitrosated and nitrosylated nebivolol and its metabolites, compositions and methods of use” (NitroMed, Inc., priority 2001, dated 2006).

As to `O=[N+]([O-])O[C@H]1CO[C@H]2[C@@H]1OC[C@H]2O[N+](=O)[O-]` [isosorbide dinitrate, 1,4,3,6-dianhydro-D-glucitol-2,5-dinitrate], the “solubility in organic solvents” value (organic solvents such as ethanol, ether and chloroform) is “freely soluble”. The solubility in water result (water) is “sparingly soluble”.
